molecular target: T1, Endothelin-1 receptor (Homo sapiens, UniProt P25101); assay: Displacement of 125I-ET1 from human placenta cell membrane ETA receptor expressed in Baculovirus-infected insect cells
T1 sequence (P25101 whole entry): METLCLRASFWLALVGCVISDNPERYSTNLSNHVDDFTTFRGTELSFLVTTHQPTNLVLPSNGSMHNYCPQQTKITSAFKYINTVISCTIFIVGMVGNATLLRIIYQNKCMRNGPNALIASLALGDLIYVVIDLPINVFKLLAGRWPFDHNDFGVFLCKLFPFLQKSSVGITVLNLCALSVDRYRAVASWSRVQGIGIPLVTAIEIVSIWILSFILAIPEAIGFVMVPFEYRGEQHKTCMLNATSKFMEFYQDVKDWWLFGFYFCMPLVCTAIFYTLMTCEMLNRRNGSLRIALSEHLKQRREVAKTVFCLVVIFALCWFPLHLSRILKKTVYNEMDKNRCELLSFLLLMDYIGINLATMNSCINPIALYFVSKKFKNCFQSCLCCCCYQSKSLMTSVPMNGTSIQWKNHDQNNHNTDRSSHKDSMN

| IC50 [nM] | SMILES |
| --- | --- |
| 1.4 | COc1ccccc1Oc1c(NS(=O)(=O)c2ccc(C(C)C)cn2)nc(-c2ccncc2)nc1OC |

molecular target: T1, Endothelin-1 receptor; assay: Displacement of [125I]-ET-1 from human ETA receptor expressed in CHO cell membranes after 2 hrs by scintillation counting

| SMILES | Ki [nM] | IC50 [nM] |
| --- | --- | --- |
| COc1cc(OC)nc(O[C@H](C(=O)O)C(OC)(c2ccccc2)c2ccccc2)n1 | 6 |  |
| Cc1ccc(=O)n([C@@H](C(=O)NS(=O)(=O)c2ccc(C(C)C)cc2)c2ccc3c(c2)OCO3)n1 |  | 29 |
| CCCNS(=O)(=O)Nc1ncnc(OCCOc2ncc(SC)cn2)c1Oc1ccccc1OC |  | 9.4 |
| CC#CCOc1nc(-c2ccnc(-c3nnn[nH]3)c2)nc(NS(=O)(=O)c2ccc(C(C)(C)C)cc2)c1Oc1ccccc1OC |  | 33 |
| CCCc1nc(C)ccc1O[C@@H](C(=O)NS(=O)(=O)c1ccc(C(C)C)cc1)c1ccc2c(c1)OCO2 | 0.11 |  |
| CNS(=O)(=O)Nc1ncnc(OCCOc2ncc(SC)cn2)c1-c1ccc(Cl)cc1 |  | 3.3 |
| COc1ccccc1Oc1c(NS(=O)(=O)c2ccc(C)cn2)nc(-c2ccnc(-c3noc(=S)[nH]3)c2)nc1OCC1CCCO1 (stereo not given) |  | 6 |
| CCCNS(=O)(=O)Nc1ncnc(OCCOc2ncc(Br)cn2)c1Oc1ccccc1OC |  | 15.4 |
| COc1ccc(Cl)c(Oc2c(NS(C)(=O)=O)ncnc2OCCOc2ncc(S(C)(=O)=O)cn2)c1 |  | 3 |

More lines, now with the values ahead:

| Ki [nM] | IC50 [nM] | SMILES |
| --- | --- | --- |
|  | 1 | Cc1ccc(C2=C(C(=O)O)C(c3ccc4c(c3)OCO4)Oc3ccc(OC(C)C)cc32)s1 (stereo not given) |
|  | 1.5 | CCCNS(=O)(=O)Nc1ncnc(OCCOc2ncc(SC)cn2)c1-c1ccc(Cl)cc1 |
|  | 0.3 | CCCCNS(=O)(=O)Nc1ncnc(OCCOc2ncc(SC)cn2)c1-c1ccc(Br)cc1 |
|  | 0.3 | CCCCNS(=O)(=O)Nc1ncnc(OCCOc2ncc(SC)cn2)c1-c1ccc(Cl)cc1 |
|  | 0.7 | O=C(O)CCNS(=O)(=O)Nc1ncnc(OCCOc2ncc(Br)cn2)c1-c1ccc(Br)cc1 |
|  | 0.1 | CCCNS(=O)(=O)Nc1ncnc(OCCOc2ncc(SC)cn2)c1-c1ccc(Br)cc1 |
|  | 1.4 | CCCNS(=O)(=O)Nc1ncnc(OCCOc2ncc(SC)cn2)c1Oc1cccc(OC)c1 |
|  | 0.5 | CCCCNS(=O)(=O)Nc1ncnc(OCCOc2ncc(OC)cn2)c1-c1ccc(Br)cc1 |
|  | 1.1 | CCCc1nc(SC2CCC(CC(=O)O)CC2)c(C(=O)O)n1Cc1cc2c(cc1Cl)OCO2 (stereo not given) |
|  | 2.4 | CCCNS(=O)(=O)Nc1ncnc(OCCOc2ncc(OC)cn2)c1-c1ccc(Br)cc1 |
|  | 2 | CNS(=O)(=O)Nc1ncnc(OCCOc2ncc(SC)cn2)c1-c1ccc(Br)cc1 |
|  | 1 | COc1ccccc1Oc1c(NS(=O)(=O)CCc2cccs2)nc(N2CCOCC2)nc1OCCOC(=O)Nc1ccccn1 |
|  | 0.7 | CCNS(=O)(=O)Nc1ncnc(OCCOc2ncc(SC)cn2)c1-c1ccc(Br)cc1 |
|  | 2 | COc1cnc(OCCOc2nc(-c3ccncc3)nc(NS(=O)(=O)NCc3ccccc3)c2-c2ccc(Cl)cc2)nc1 |
|  | 2 | Cc1ccc(-c2c(NS(=O)(=O)/C=C/c3ccccc3)ncnc2OCCOc2ncc(Br)cn2)cc1 |
|  | 1 | COC(c1ccccc1)(c1ccccc1)[C@H](Oc1nc(C)cc(C)n1)C(=O)O [AMBRISENTAN] |

molecular target: T2, Endothelin receptor type B (Homo sapiens, UniProt P24530); assay: Displacement of [125I]-ET-1 from human ETB receptor expressed in CHO cell membranes after 2 hrs by scintillation counting
T2 sequence (P24530 whole entry): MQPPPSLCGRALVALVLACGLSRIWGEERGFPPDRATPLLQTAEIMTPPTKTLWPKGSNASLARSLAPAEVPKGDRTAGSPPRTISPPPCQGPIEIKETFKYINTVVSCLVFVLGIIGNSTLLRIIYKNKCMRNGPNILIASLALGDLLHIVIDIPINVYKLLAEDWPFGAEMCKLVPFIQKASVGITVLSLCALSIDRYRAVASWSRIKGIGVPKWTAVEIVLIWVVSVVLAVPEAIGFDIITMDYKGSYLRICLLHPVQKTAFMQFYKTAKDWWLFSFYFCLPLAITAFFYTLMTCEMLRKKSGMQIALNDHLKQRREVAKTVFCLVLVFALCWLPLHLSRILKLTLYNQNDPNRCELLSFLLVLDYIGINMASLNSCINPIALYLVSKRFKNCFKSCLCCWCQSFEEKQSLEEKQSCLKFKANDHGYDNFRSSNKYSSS

| SMILES | Ki [nM] | IC50 [nM] |
| --- | --- | --- |
| COc1cc(OC)nc(O[C@H](C(=O)O)C(OC)(c2ccccc2)c2ccccc2)n1 | 371 |  |
| Cc1ccc(=O)n([C@@H](C(=O)NS(=O)(=O)c2ccc(C(C)C)cc2)c2ccc3c(c2)OCO3)n1 |  | 3.5 |
| CCCNS(=O)(=O)Nc1ncnc(OCCOc2ncc(SC)cn2)c1Oc1ccccc1OC |  | 315 |
| CC#CCOc1nc(-c2ccnc(-c3nnn[nH]3)c2)nc(NS(=O)(=O)c2ccc(C(C)(C)C)cc2)c1Oc1ccccc1OC |  | 29 |
| CCCc1nc(C)ccc1O[C@@H](C(=O)NS(=O)(=O)c1ccc(C(C)C)cc1)c1ccc2c(c1)OCO2 | 25 |  |
| CNS(=O)(=O)Nc1ncnc(OCCOc2ncc(SC)cn2)c1-c1ccc(Cl)cc1 |  | 555 |
| COc1ccccc1Oc1c(NS(=O)(=O)c2ccc(C)cn2)nc(-c2ccnc(-c3noc(=S)[nH]3)c2)nc1OCC1CCCO1 (stereo not given) |  | 288 |
| CCCNS(=O)(=O)Nc1ncnc(OCCOc2ncc(Br)cn2)c1Oc1ccccc1OC |  | 1430 |
| COc1ccc(Cl)c(Oc2c(NS(C)(=O)=O)ncnc2OCCOc2ncc(S(C)(=O)=O)cn2)c1 |  | 542 |
| COc1nc(C)cnc1NS(=O)(=O)c1cccnc1-c1ccc(-c2nnco2)cc1 [ZIBOTENTAN] |  | > 100 |

Results, then the compound that gave them:

| Ki [nM] | IC50 [nM] | SMILES |
| --- | --- | --- |
|  | 1800 | Cc1ccc(C2=C(C(=O)O)C(c3ccc4c(c3)OCO4)Oc3ccc(OC(C)C)cc32)s1 (stereo not given) |
|  | 686 | CCCNS(=O)(=O)Nc1ncnc(OCCOc2ncc(SC)cn2)c1-c1ccc(Cl)cc1 |
|  | 63 | CCCCNS(=O)(=O)Nc1ncnc(OCCOc2ncc(SC)cn2)c1-c1ccc(Br)cc1 |
|  | 82 | CCCNS(=O)(=O)Nc1ncnc(OCCOc2ncc(SC)cn2)c1-c1ccc(Br)cc1 |
|  | 90 | CCCNS(=O)(=O)Nc1ncnc(OCCOc2ncc(SC)cn2)c1Oc1cccc(OC)c1 |
|  | 210 | CCCCNS(=O)(=O)Nc1ncnc(OCCOc2ncc(OC)cn2)c1-c1ccc(Br)cc1 |
|  | 516 | CCCNS(=O)(=O)Nc1ncnc(OCCOc2ncc(OC)cn2)c1-c1ccc(Br)cc1 |
|  | 290 | CNS(=O)(=O)Nc1ncnc(OCCOc2ncc(SC)cn2)c1-c1ccc(Br)cc1 |
|  | 100 | COc1ccccc1Oc1c(NS(=O)(=O)CCc2cccs2)nc(N2CCOCC2)nc1OCCOC(=O)Nc1ccccn1 |
|  | 569 | COc1cnc(OCCOc2nc(-c3ccncc3)nc(NS(=O)(=O)NCc3ccccc3)c2-c2ccc(Cl)cc2)nc1 |

molecular target: T1, Endothelin-1 receptor; assay: Displacement of radioligand from ETA receptor (unknown origin) expressed in fall armyworm sf9 cell membranes

| IC50 [nM] | SMILES |
| --- | --- |
| 26000 | CC(C)(C)c1ccc(S(=O)(=O)Nc2nc(-c3ncccn3)nc(OCCO)c2Oc2ccccc2O)cc1 |
| > 100000 | COc1ccccc1Oc1c(OCCO)nc(-c2ncccn2)nc1N(C)S(=O)(=O)c1ccc(C(C)(C)C)cc1 |
| 133000 | COc1ccccc1Oc1c(NS(=O)(=O)c2ccc(C(C)(C)C)cc2)nc(-c2ncccn2)[nH]c1=O |
| 1500 | COc1ccccc1Oc1c(NS(=O)(=O)c2ccccc2)nc(-c2ncccn2)nc1OCCO |

Reference: ChEMBL document CHEMBL4425117 (Bioorg Med Chem Lett, 2016)
